Data on two substances can be found in patent US20140018340A1, “Insulin Mimetic Active Comprising Oxodiperoxo Vanadates and a Pharmaceutical Composition Obtained Thereof” (priority 2011, published 2014).

In assay [1] the test system is Glut4 in 3T3-L1 adipocytes. Description: In vitro assay of Glut 4 translocation (GFP-Glut4 transfected cells). It is filed as cell-based. Particulars: GFP-Glut4 transfected 3T3-L1 adipocytes.
The conditions of assay [2]: dose inducing insulin like activity, from cited reference; cited from earlier work.

For “insulin: the hormone which regulates the body's glucose level and metabolism”, the “Glut4 translocation from cytosol to membrane” value in assay [1] is “gets translocated to the membrane on addition of insulin”. In the case of pervanadate, in assay [2], the Dose in-vitro is listed as 1 mM.
